Measurements taken from patent publication US11396517B1, “Exo-aza spiro inhibitors of menin-MLL interaction” (Janssen Pharmaceutica NV, priority 2017, dated 2022).
Where two headings read alike, the source gives them in different places.

Legend:
[1] = system: MV-4-11; assay: Proliferation assay B (spheroid assay) MV-4-11; assay type: cell-based, human; details: MV-4-11 cells, confluence at day 8, absolute IC50, read-out: (3b) Spheroid assay MV-4--11 (IC50(μM)) Assay B
Description: 3b) Proliferation Assay B
The anti-proliferative effect of menin/MLL protein/protein interaction inhibitor test compounds was assessed in human leukemia cell lines. The cell lines MV-4-11 and MOLM14 harbor MILL translocations and express the MILL fusion proteins MLL-AF4 and MLL-AF9, respectively, as well as the wildtype protein from the second allele. […] K562 was used as a control cell line containing two MLL wildtype alleles in order to exclude compounds that display general cytotoxic effects.
MV-4-11 and MOLM14 were cultured in RPMI-1640 (Sigma Aldrich) supplemented with 10% fetal bovine serum (HyClone), 2 mM L-glutamine (Sigma Aldrich) and 50 μg/ml gentamycin (Gibco). K562 were propagated in RPMI-1640 (Sigma Aldrich) supplemented with 20% fetal bovine serum (HyClone), 2 mM L-glutamine (Sigma Aldrich) and 50 μg/ml gentamycin (Gibco).
In order to assess the anti-proliferative effects, 1,500 MV-4-11, 300 MOLM14 cells or 750 K562 cells were seeded in 200 μl media per well in 96-well round bottom, ultra-low attachment plates (Costar, catalogue number 7007). Cell seeding numbers were chosen based on growth curves to ensure linear growth throughout the experiment. Test compounds were added at different concentrations and the DMSO content was normalized to 0.3%. Cells were incubated for 8 d at 37° C. and 5% CO2. Spheroid like growth was measured in real-time by live-cell imaging (IncuCyteZOOM, Essenbio, 4× objective) acquiring images at day 8. Confluence (%) as a measure of spheroid size was determined using an integrated analysis tool.
In order to determine the effect of the test compounds over time, the confluence in each well as a measure of spheroid size, was calculated. Confluence […] at the beginning of the experiment (t=0) was used as baseline for the calculation.
Absolute IC50 values were calculated as percent change in confluence as follows:
LC=Low Control: cells treated with 1 μM of the cytotoxic agent staurosporin
HC=High Control: Mean confluence (%) (DMSO treated cells) % Effect=100−(100*(Sample−LC)/(HC−LC))
To determine the IC50 a curve is fitted to the plot of % Effect vs Log 10 compound concentration using a sigmoidal fit with a variable slope and fixing the maximum to 100% and the minimum to 0%.

[2] = system: MOLM14; assay: Proliferation assay B (spheroid assay) MOLM14; assay type: cell-based, human; details: MOLM14 cells, confluence at day 8, absolute IC50, read-out: (3b) Spheroid assay MOLM14 (IC50(μM)) Assay B
In short: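 Leukemia cells grown as spheroids in ultra-low-attachment round-bottom wells with compound at 0.3% DMSO for 8 d at 37 °C. Confluence imaged at day 8 as spheroid size, normalized between DMSO and 1 μM staurosporine controls; absolute IC50 from sigmoidal fit with bounds fixed at 0 and 100%.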

[3] = biological target: T1, menin (Homo sapiens, UniProt O00255, T541A); assay: Menin/MLL homogenous time-resolved fluorescence (HTRF) assay; assay type: binding; details: location 2; read-out: (2) location 2 Menin HTRF assay (IC50 (nM))
T1 construct: Menin (a.a. 1-610-6×his tag)
T1 sequence (O00255 with tags, fused parts or gaps T541A): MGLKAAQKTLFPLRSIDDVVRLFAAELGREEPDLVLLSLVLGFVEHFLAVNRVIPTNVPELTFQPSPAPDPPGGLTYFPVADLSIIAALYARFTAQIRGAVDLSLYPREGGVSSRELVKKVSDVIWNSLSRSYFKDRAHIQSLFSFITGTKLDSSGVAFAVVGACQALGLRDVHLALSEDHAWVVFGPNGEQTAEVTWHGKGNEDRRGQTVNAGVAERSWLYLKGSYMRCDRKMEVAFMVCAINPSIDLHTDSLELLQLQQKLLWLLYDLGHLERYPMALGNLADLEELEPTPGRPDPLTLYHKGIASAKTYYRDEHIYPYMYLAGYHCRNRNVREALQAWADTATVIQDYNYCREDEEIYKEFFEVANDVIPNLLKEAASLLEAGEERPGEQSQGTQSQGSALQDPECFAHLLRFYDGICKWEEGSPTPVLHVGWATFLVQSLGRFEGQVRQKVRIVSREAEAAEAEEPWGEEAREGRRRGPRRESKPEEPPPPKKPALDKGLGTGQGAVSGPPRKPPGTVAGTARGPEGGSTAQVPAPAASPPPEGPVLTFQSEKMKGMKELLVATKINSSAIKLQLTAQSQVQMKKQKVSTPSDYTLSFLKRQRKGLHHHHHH
In short: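 Terbium-labeled menin (aa 1-610, His-tagged; […]) preincubated 5 min with compound, then 75 nM FITC-MBM1 peptide for 15 min, ambient, Tris pH 7.5, 0.5% DMSO. HTRF 520/490 ratio; 11-point 3-fold titration; IC50 from % inhibition fit.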

SMILES	IC50 ([1]; Homo sapiens, MV4-11, 192 h) [µM]	IC50 ([2]; Homo sapiens, MOLM-14, 192 h) [µM]	IC50 [3] [nM]	IC50 [1] [µM]	IC50 [2] [µM]
CNC(=O)c1ccc(NC2CC3(CCN(c4ncnc5sc(CC(F)(F)F)cc45)C3)C2)cc1CCCN1CCN(S(C)(=O)=O)CC1 (mixture of isomers) [Compound 251]	> 3.75	> 3.75	171		
N#CC1(c2ccc(NC3CCC4(CCN(c5ncnc6sc(CC(F)(F)F)cc56)C4)C3)cc2)CC1 (stereo not drawn) [Compound 131]	3.3	> 3.75	49.1		
CC(C)(C#N)c1ccc(NC2CCC3(CCN(c4ncnc5sc(CC(F)(F)F)cc45)C3)C2)cc1 (stereo not drawn) [Compound 130]	> 3.75	> 3.75	67.1		
CNC(=O)c1ccc(NC2CC3(CCN(c4ncnc5sc(CC(F)(F)F)cc45)C3)C2)cc1C#N (mixture of isomers) [Compound 422]	> 3.75	> 3.75	34.1		
CS(=O)(=O)NC(=O)c1ccc(NC2CC3(CCN(c4ncnc5sc(CC(F)(F)F)cc45)C3)C2)cc1 (single isomer, unassigned) [Compound 362]	> 3.75	> 3.75	836		
Cn1c(=O)[nH]c2ccc(CN[C@H]3CCC4(C3)CN(c3ncnc5sc(CC(F)(F)F)cc35)C4)cc21 (stereo in doubt) [Compound 111]	0.62	3.06	65		
CNC(=O)c1ccc(NC2CCC3(C2)CN(c2ncnc4sc(CC(F)(F)F)cc24)C3)cc1 (stereo not drawn) [Compound 96]	1.02	1.09	43.4		
O=C(c1ccc(NC2CC3(CCN(c4ncnc5sc(CC(F)(F)F)cc45)C3)C2)cc1)N1CCOCC1 (single isomer, unassigned) [Compound 334]			256	> 3.75	> 3.75
FC(F)(F)Cc1cc2c(N3CCC4(CC(Nc5ccccn5)C4)C3)ncnc2s1 (stereo not drawn) [Compound 151]	2.03	2.48	31		
Fc1ccc(NC2CC3(CCN(c4ncnc5sc(CC(F)(F)F)cc45)C3)C2)cc1 (mixture of isomers) [Compound 158]	2.41	1.98	72.2		
N#CCc1ccc(N[C@H]2CC[C@]3(CCN(c4ncnc5sc(CC(F)(F)F)cc45)C3)C2)cc1 (stereo in doubt) [Compound 147]	2.07	2.9	45.3		
CS(=O)(=O)NC(=O)c1ccc(NC2CC3(CCN(c4ncnc5sc(CC(F)(F)F)cc45)C3)C2)cc1 (single isomer, unassigned) [Compound 361]			61.7	> 3.75	> 3.75

Continued by falling IC50 [3], values first:

IC50 ([1]; Homo sapiens, MV4-11, 192 h) [µM]	IC50 ([2]; Homo sapiens, MOLM-14, 192 h) [µM]	IC50 [3] [nM]	IC50 [1] [µM]	IC50 [2] [µM]	SMILES
		30.2	0.97	0.71	CN1CC=C(c2cc(NC3CC4(CCN(c5ncnc6sc(CC(F)(F)F)cc56)C4)C3)ccc2C(C)(C#N)C#N)CC1 (single isomer, unassigned) [Compound 247]
> 3.75	> 3.75	26.4			CNc1nc(N2CCC3(CC(Nc4ccc5[nH]c(=O)oc5c4)C3)C2)c2cc(CC(F)(F)F)sc2n1 (mixture of isomers) [Compound 399]
3.37	> 3.75	22.8			O=c1[nH]c2cc(N[C@H]3CCC4(C3)CN(c3ncnc5sc(CC(F)(F)F)cc35)C4)ccc2o1 (single isomer, unassigned) [Compound 287]
> 3.75	> 3.75	17.4			O=c1[nH]c2ccc(NC3CC4(CCN(c5ncnc6sc(CC(F)(F)F)cc56)C4)C3)cc2[nH]1 (mixture of isomers) [Compound 319]
> 3.75	> 3.75	16.4			Cc1nc(N2CCC3(CC(Nc4ccc(CC#N)cc4)C3)C2)c2cc(CC(F)(F)F)sc2n1 (mixture of isomers) [Compound 404]
1.02	1.22	16.2			CS(=O)(=O)N1CCC(CNC(=O)c2ccc(NC3CC4(CCN(c5ncnc6sc(CC(F)(F)F)cc56)C4)C3)cc2)CC1 (mixture of isomers) [Compound 177]
0.69	0.81	15.1			Cc1nc(N2CCC3(CC(NCc4ccccc4)C3)C2)c2cc(CC(F)(F)F)sc2n1 (single isomer, unassigned) [Compound 262]
0.12	0.14	10.3			O=C(c1ccc(NC2CC3(CCN(c4ncnc5sc(CC(F)(F)F)cc45)C3)C2)cc1)N1CCOCC1 (mixture of isomers) [Compound 333]
1.4	2.77	9.3			N#CCc1ccc(N[C@@H]2CC[C@@]3(CCN(c4ncnc5sc(CC(F)(F)F)cc45)C3)C2)cc1 (stereo in doubt) [Compound 144]
0.43	2.83	7.8			CNC(=O)c1ccc(NC2CC3(CCN(c4ncnc5sc(CC(F)(F)F)cc45)C3)C2)c(F)c1F (single isomer, unassigned) [Compound 226]
0.62	1.91	5.5			Cn1c(=O)[nH]c2ccc(CN[C@@H]3CCC4(C3)CN(c3ncnc5sc(CC(F)(F)F)cc35)C4)cc21 (stereo in doubt) [Compound 110]
		5.2	0.46	1.55	O=C(c1ccc(NC2CC3(CCN(c4ncnc5sc(CC(F)(F)F)cc45)C3)C2)cc1)N1CCOCC1 (single isomer, unassigned) [Compound 335]
0.33	0.48	2.9			CN1CCC(c2cc(NC3CC4(CCN(c5ncnc6sc(CC(F)(F)F)cc56)C4)C3)ccc2C#N)CC1 (racemic) [Compound 78]
0.23	0.5	2.8			CNC(=O)c1ccc(NC2CC3(CCN(c4ncnc5sc(CC(F)(F)F)cc45)C3)C2)nc1 (single isomer, unassigned) [Compound 72]
0.14	0.62	1			CNC(=O)c1ccc(NC2CC3(CCN(c4ncnc5sc(CC(F)(F)F)cc45)C3)C2)c(F)c1 (single isomer, unassigned) [Compound 67]
